# Data taken from US9394352B2, “Immunogenic POTE peptides and methods of use” (The United States of America, as represented by the …, priority 2010, dated 2016).
# Where no end group is shown, it is not given here.
# Tested on: NCI-H522 cells (POTE+/HLA-A2)
# Assay: CTL cytotoxicity against human cancer cells
# Format: cell-based
# Conditions: HHD-2 mice immunized with 50 nmol peptide, restimulated 7 days with 1000 nM peptide; POTE-expressing NCI-H522 human lung cancer cells
# Method: FIGS. 8A-8B are graphs showing anti-tumor cytotoxicity induced by enhanced POTE epitopes. AAD mice were immunized s.c. with 50 nmol of peptide in 100 μl of emulsion. (FIG. 8A) Anti-tumor cytotoxicity against a POTE-expressing human lung cancer cell line NCI-H522 induced by POTE 553-1Y, 323-3F and 252-9V. HHD-2 mice were immunized with 50 nmol of peptide in 100 μl of emulsion and restimulated for 7 days with 1000 nM peptide before being tested for ability to lyse the tumor cells. (FIG. 8B) Summary of the anti-tumor cytotoxicity in POTE-expressing and non-POTE-expressing human tumor cells. NCI-H522 is a human lung cancer line expressing both POTE and HLA-A2, whereas HTB-19 is a human mammary carcinoma that expresses POTE but not HLA-A2, and MDA-MB-231 is a human mammary carcinoma cell line expressing HLA-A2 but not POTE.
# AAD or HHD-2 mice were immunized subcutaneously (s.c.) in the base of the tail with 100 μl of an emulsion containing 1:1 incomplete Freund's adjuvant (Sigma) and PBS with peptides and cytokines (50 nmol of CTL epitope, 50 nmol of hepatitis B virus core 128-140 helper epitope, 5 μg of mouse interleukin-12, and 5 μg of mouse granulocyte macrophage colony-stimulating factor). Cytokines were purchased from Peprotech (Rocky Hill, N.J.). Mice were boosted 2 weeks later, and the spleens were removed 2 weeks after the boost. For all experiments, groups of three mice were used.
# Splenocytes from the immunized mice were re-stimulated with peptide-loaded splenocytes (1 μM, or 10 nM). On day 1 and day 5, rat T STIM™ (BD Bioscience) was added as a source of IL-2. One week later, CTL activity was measured by using a 4-hour ^51Cr releasing assay. […] The percentage of specific ^51Cr release is calculated as 100× [(experimental release-spontaneous release)/(maximum release-spontaneous release)]. Spontaneous release is determined from target cells incubated without effector cells, and maximum release is determined in the presence of 5% triton-X. C1R.AAD or C1R.A2.1 cell lines were used as targets. […]
row,Sequence,anti-tumor cytotoxicity of peptide-induced CTLs
1,KLMAKALLV [POTE 252-9V],did not kill POTE-expressing cancer cells
2,LLFEQNVDV [POTE 323-3F],produced significant cytotoxicity to lyse NCI-H522 cells
3,YILEEIESV [POTE 553-1Y],produced significant cytotoxicity to lyse NCI-H522 cells
